In publication PMC5238714 (Biochemistry, 2016):

Legend:
GARFTase = conditions: read-out: reported Ki with GARFTase; in vitro assays; cited from earlier work
[1] = molecular target: T1, human GARFTase (formyltransferase domain) (Homo sapiens, UniProt P22102); experiment: GAR transformylase; format: biochemical; conditions: ratio of Ki values
T1 sequence (P22102 810-1010 limits assumed): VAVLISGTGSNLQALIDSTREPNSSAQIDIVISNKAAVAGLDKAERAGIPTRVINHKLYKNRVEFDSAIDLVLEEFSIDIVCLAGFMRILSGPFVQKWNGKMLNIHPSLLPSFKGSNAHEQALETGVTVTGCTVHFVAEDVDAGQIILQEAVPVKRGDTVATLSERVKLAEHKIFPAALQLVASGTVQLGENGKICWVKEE

For `Nc1nc(N)c(CCCC(C(=O)C(F)(F)F)c2ccc(C(=O)N[C@@H](CCC(=O)O)C(=O)O)cc2)c(=O)[nH]1` (some centres unmarked) [10-trifluoroacetyl antifolate, 10-(trifluoroacetyl)-5,10-dideazaacyclic-5,6,7,8-tetrahydrofolic acid], the Ki (GARFTase) is given as 15 nM.
With `Nc1nc2[nH]c(CCCCCCCC(=O)N[C@@H](CCC(=O)O)C(=O)O)cc2c(=O)[nH]1` [AGF147] the “fold weaker GARFTase inhibition than AGF94 and AGF145” value [1] was “roughly 1.5 fold”.
